Test results as given in PubChem BioAssay (NCI).
“And” between values parts separate entries of the source, which are not always exact repeats. Equal values may be shown once.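 Five concentrations, 48 hours, 96-well plates. At the GI50, growth is halved. TGI is the concentration that stops growth completely.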

Legend:
Assay in all cases: inhibition of tumour cell growth, NCI panel, 48 h
UACC-62 melanoma = system: UACC-62 melanoma
786-0 renal = system: 786-0 renal
NCI-H460 lung = system: NCI-H460 lung
DU-145 prostate = system: DU-145 prostate
MOLT-4 leukemia = system: MOLT-4 leukemia
HS 578T breast = system: HS 578T breast
CAKI-1 renal = system: CAKI-1 renal
DLD-1 colon = system: DLD-1 colon
KM20L2 colon = system: KM20L2 colon
DMS 114 small cell lung = system: DMS 114 small cell lung

Compound | GI50 (UACC-62 melanoma) | TGI (UACC-62 melanoma) | GI50 (786-0 renal) | GI50 (NCI-H460 lung) | GI50 (DU-145 prostate) | TGI (DU-145 prostate) | GI50 (MOLT-4 leukemia) | TGI (MOLT-4 leukemia) | GI50 (HS 578T breast) | TGI (HS 578T breast) | GI50 (CAKI-1 renal) | TGI (CAKI-1 renal) | TGI (786-0 renal) | TGI (NCI-H460 lung) | GI50 (DLD-1 colon) | TGI (DLD-1 colon) | GI50 (KM20L2 colon) | TGI (KM20L2 colon) | TGI (DMS 114 small cell lung)
CC(=O)c1cc(C(=O)c2ccc3c(c2)Sc2ccccc2N3)n2ccccc12 | 0.00293 µM and 0.00332 µM | > 33.2 µM | 0.00459 µM | 0.00339 µM and 0.00332 µM | 5.14 nM and 3.32 nM | > 33.2 µM | 0.00623 µM and 0.00332 µM | > 33.2 µM | 3.75 nM and 3.32 nM | > 33.2 µM | 0.00368 µM and 0.00369 µM | > 33.2 µM | – | – | – | – | – | – | –
COc1cc(C2c3cc4c(cc3C(OC(=O)C[n+]3ccccc3)C3COC(=O)C23)OCO4)cc(OC)c1OC (stereo not given) | 10.7 µM | > 100 µM | < 0.0183 µM | < 0.0187 µM | < 18.4 nM | > 100 µM | < 0.0197 µM | > 100 µM | < 24.1 nM | > 100 µM | < 0.0184 µM | > 100 µM | > 100 µM | > 100 µM | – | – | – | – | –
CC(=O)[CH-]C(=O)c1ccccc1.CC(=O)[CH-]C(=O)c1ccccc1.CC(=O)[CH-]C(=O)c1ccccc1.[Nd+3].[OH3+] | 45.5 µM | > 100 µM | 37 µM | 42.8 µM | – | – | 28.4 µM | > 100 µM | – | – | 61 µM | > 100 µM | > 100 µM | > 100 µM | 25 µM | > 100 µM | 38 µM | > 100 µM | –
C#CCN(c1ccc(C(=O)N[C@@H](CCC(=O)N[C@H](CCC(=O)O)C(=O)O)C(=O)O)cc1)C1CCc2cc3nc(CO)[nH]c(=O)c3cc21 (stereo not given in full) | 7.33 µM | > 64.1 µM | 4.96 µM | 5.11 µM | 16500 nM | > 100 µM | 31.6 µM | > 100 µM | > 100000 nM | > 100 µM | 6.13 µM | > 100 µM | > 100 µM | > 100 µM | – | – | – | – | –
Clc1ccccc1-c1nnc2c(Cc3ccccc3)nc3ccccc3n12 | 6.9 µM | > 100 µM | 12.5 µM | 3.18 µM | 55100 nM | > 100 µM | 9.04 µM | > 100 µM | 9040 nM | > 100 µM | 9.59 µM | > 100 µM | 98.3 µM | > 100 µM | – | – | – | – | –
COc1ccc(/C=C2/SC(Nc3nc(-c4nc(NC5=NC(=O)/C(=C\c6ccc(OC)cc6)S5)sc4C)c(C)s3)=NC2=O)cc1 | 0.32 µM | 6.62 µM | 1.07 µM | 1.4 µM | 2430 nM | > 19.7 µM | 8.87 µM | > 50 µM | 288 nM | 1.61 µM | 0.368 µM | 3.16 µM | 4.18 µM | > 31.7 µM | – | – | – | – | –
CC1=CC(C)(C)NN1C1=NS(=O)(=O)c2ccccc2N1C | – | > 100 µM | – | – | – | > 100 µM | – | > 100 µM | – | > 100 µM | – | > 100 µM | > 100 µM | > 100 µM | – | – | – | – | –
Cn1cc(-c2cnn3c(N)c(Br)c(C4CCCNC4)nc23)cn1 (stereo not given) | 8.9 µM | 28.8 µM | 1.62 µM | 6.54 µM | 3200 nM | 65 µM | 0.575 µM | 23.2 µM | 4000 nM | > 72.3 µM | 5.43 µM | > 38.5 µM | 60.6 µM | 30.7 µM | – | – | – | – | –
N#CC(C(=O)/C(=N\NC(N)=O)C(C#N)c1ccccc1)c1ccccc1 (stereo not given) | – | > 100 µM | – | – | – | – | – | > 100 µM | – | – | – | > 100 µM | > 100 µM | > 100 µM | – | > 100 µM | – | > 100 µM | –
Cn1c2c(c3c(Cl)nncc31)Cc1ccccc1-2 | 13.9 µM | 62 µM | 23.6 µM | 5.28 µM | 6400 nM | 41 µM | 3.12 µM | – | 28000 nM | > 100 µM | 16.9 µM | 67.2 µM | > 100 µM | 67.1 µM | – | – | – | – | –
COc1cc(/C=N/N=C(\N)NO)c(Cl)cc1O | – | > 100 µM | – | – | – | – | – | > 100 µM | – | – | – | > 100 µM | > 100 µM | – | – | – | – | – | > 100000 nM
O=C1C=CC(=O)c2c(O)c3c(c(O)c21)C[C@H](O)[C@H](O)[C@@H]3O | – | 10.1 µM | – | – | – | 6.87 µM | – | > 23.6 µM | – | 7.87 µM | – | 4.38 µM | 4.06 µM | 16.8 µM | – | – | – | – | –
COC(=O)c1cc2c3ccccc3n3c2c(n1)-c1[nH]c2ccccc2c(=O)c1C3 | 43.3 µM | > 100 µM | 16.8 µM | > 100 µM | > 100000 nM | > 100 µM | 5.9 µM | > 100 µM | 15400 nM | > 100 µM | > 100 µM | > 100 µM | 60.3 µM | > 100 µM | – | – | – | – | –
Nc1c(Cl)ncnc1NCCCCCCCCCCCCNc1ncnc(Cl)c1N | – | 13.6 µM | – | – | – | – | – | – | – | – | – | – | 66.1 µM | 10.1 µM | – | > 100 µM | – | > 100 µM | 2490 nM
CCCCCCCC/C=C/CCCCCCCC1=NC(C)(C)CN1CCO | 1.72 µM | 3.42 µM | 1.73 µM | 1.85 µM | 1720 nM | 3.09 µM | 1.44 µM | 4.9 µM | 1760 nM | 3.98 µM | 1.56 µM | 3.03 µM | 3.14 µM | 3.42 µM | – | – | – | – | –
COc1ccc([C@@]23Oc4cc(OC)cc(OC)c4[C@]2(O)[C@H](O)[C@H](C(N)=O)[C@H]3c2ccccc2)cc1 | < 0.016 µM | 0.106 µM | 0.018 µM | – | – | 0.105 µM and < 0.0219 µM | – | > 100 µM | < 13.5 nM | 0.0914 µM and < 0.01 µM | – | 0.0838 µM | 0.291 µM | 0.19 µM | – | – | – | – | –
CC(=O)[C@H]1CCC2[C@@H]3CC=C4C[C@@H]([O-])CC[C@]4(C)C3CC[C@@]21C.CC(=O)[C@H]1CCC2[C@@H]3CC=C4C[C@@H]([O-])CC[C@]4(C)C3CC[C@@]21C.CC(=O)[CH-]C(=O)c1ccccc1.CC(=O)[CH-]C(=O)c1ccccc1.Cl.[Ti+4] (stereo not given in full) | 15.8 µM | 56.9 µM | 6.03 µM | 13.9 µM | – | – | 38.1 µM | > 100 µM | – | – | 19 µM | 97.3 µM | 17.9 µM | 52.6 µM | 27.4 µM | > 100 µM | 10.8 µM | > 100 µM | –
COc1ccc(S(=O)(=O)N(CC(=O)O)c2ccccc2)cc1 | – | > 100 µM | – | – | – | – | – | > 100 µM | – | – | – | > 100 µM | > 100 µM | > 100 µM | – | > 100 µM | – | > 100 µM | –
